Experimental data from a compilation of properties of binary mixtures (doi:10.1016/j.fluid.2015.01.011).

Experiment: xn = mol fraction of the nth substance listed
Conditions: 100 kPa

[N-]=C=S.[NH4+] + CC[n+]1ccn(C)c1.N#C[S-]
Conditions	electrical conductivity, x1 = 0.039 [S/m]	electrical conductivity, x1 = 0.099 [S/m]	electrical conductivity, x1 = 0.1395 [S/m]	viscosity, x1 = 0.039 [mPa·s]	viscosity, x1 = 0.099 [mPa·s]	viscosity, x1 = 0.1395 [mPa·s]
298.15 K	2.07	2.05	1.86	25.9	29.9	31.6
303.15 K	2.38	2.37	2.17	22	25.2	26.5
308.15 K	2.72	2.72	2.5	18.84	21.4	22.5
313.15 K	–	3.11	2.88	–	18.21	19.1
318.15 K	–	3.52	–	–	16	–
323.15 K	3.97	3.98	–	12.59	14.03	–
328.15 K	–	–	–	–	12.4	12.88
333.15 K	–	–	–	9.85	–	11.33
338.15 K	–	–	–	9.01	9.9	10.24
343.15 K	–	–	–	8.16	8.91	–
348.15 K	–	–	–	7.42	–	8.32
353.15 K	–	–	–	6.68	–	–

CCOS(=O)(=O)[O-].CC[n+]1ccn(C)c1 + CC[n+]1ccn(C)c1.N#C[S-]
x2 = 0
Conditions	electrical conductivity [S/m]	viscosity [mPa·s]
298.15 K	0.308	96.9
303.15 K	0.382	76.5
308.15 K	0.469	61.6
313.15 K	0.57	–
318.15 K	0.678	–
323.15 K	0.871	35
328.15 K	–	29.7
333.15 K	–	25.6
338.15 K	–	22.04
343.15 K	–	19.23
348.15 K	–	16.89

CC[n+]1ccn(C)c1.N#C[S-] + [N-]=C=S.[NH4+]
x2 = 0
Conditions	electrical conductivity [S/m]	viscosity [mPa·s]
298.15 K	2.32	23.1
303.15 K	2.67	19.68
308.15 K	3.06	16.97
313.15 K	3.47	14.54
318.15 K	3.92	12.98
328.15 K	–	10.25
333.15 K	–	9.02
338.15 K	–	8.3
343.15 K	–	7.53

CC[n+]1ccn(C)c1.N#C[S-] + CC[n+]1ccn(C)c1.N#C[N-]C#N
x1 = 1
Conditions	electrical conductivity [S/m]	viscosity [mPa·s]
298.15 K	2.32	23.1
303.15 K	2.67	19.68
308.15 K	3.06	16.97
313.15 K	3.47	14.54
323.15 K	4.38	11.49
333.15 K	–	9.02
348.15 K	–	6.87
353.15 K	–	6.17

CC[n+]1ccn(C)c1.N#C[N-]C#N + CC[n+]1ccn(C)c1.N#C[S-]
Conditions	electrical conductivity, x2 = 0 [S/m]	electrical conductivity, x2 = 0.2585 [S/m]	electrical conductivity, x2 = 0.5112 [S/m]	electrical conductivity, x2 = 0.7603 [S/m]	viscosity, x2 = 0 [mPa·s]	viscosity, x2 = 0.2585 [mPa·s]	viscosity, x2 = 0.5112 [mPa·s]	viscosity, x2 = 0.7603 [mPa·s]
298.15 K	2.84	–	2.51	2.41	14.78	–	18.27	20.62
303.15 K	3.22	3.05	2.89	2.76	12.87	14.18	15.74	17.66
308.15 K	3.63	–	3.27	3.14	11.3	–	13.7	15.3
313.15 K	4.06	3.87	3.67	3.56	9.76	10.72	11.78	13.12
318.15 K	–	4.33	4.14	–	–	9.75	10.66	–
323.15 K	5.02	4.81	–	4.48	8.01	8.73	–	10.47
328.15 K	–	–	–	–	7.24	–	8.54	9.37
333.15 K	–	–	–	–	–	6.92	7.51	8.25
338.15 K	–	–	–	–	6	–	7.01	7.64
343.15 K	–	–	–	–	5.51	5.94	6.4	6.95
348.15 K	–	–	–	–	5.06	5.47	–	6.36
353.15 K	–	–	–	–	4.52	4.89	5.25	–

CC[n+]1ccn(C)c1.N#C[S-] + CCOS(=O)(=O)[O-].CC[n+]1ccn(C)c1
Conditions	electrical conductivity [S/m]	viscosity [mPa·s]
298.15 K, x1 = 0.199	0.421	96.4
298.15 K, x1 = 0.32	0.569	83.5
298.15 K, x1 = 0.429	0.745	65.3
298.15 K, x1 = 0.899	1.84	27.8
298.15 K, x1 = 0.9505	2.1	25
298.15 K, x1 = 1	2.32	23.1
303.15 K, x1 = 0.199	0.512	76.1
303.15 K, x1 = 0.32	0.696	66.5
303.15 K, x1 = 0.429	0.809	52.7
303.15 K, x1 = 0.67	1.38	35.8
303.15 K, x1 = 0.899	2.15	23.5
303.15 K, x1 = 0.9505	2.29	21.2
303.15 K, x1 = 1	2.67	19.68
308.15 K, x1 = 0.32	0.842	53.9
308.15 K, x1 = 0.429	1.09	43.1
308.15 K, x1 = 0.67	1.62	30
308.15 K, x1 = 0.899	2.5	20.07
308.15 K, x1 = 0.9505	2.79	18.2
308.15 K, x1 = 1	3.06	16.97
313.15 K, x1 = 0.199	0.733	61.2
313.15 K, x1 = 0.32	1	53.9
313.15 K, x1 = 0.67	1.88	30
313.15 K, x1 = 0.899	2.85	20.07
313.15 K, x1 = 0.9505	3.18	18.2
313.15 K, x1 = 1	3.47	16.97
318.15 K, x1 = 0.199	0.861	50.1
318.15 K, x1 = 0.32	1.19	44.4
318.15 K, x1 = 0.429	1.29	–
318.15 K, x1 = 0.67	2.18	–
318.15 K, x1 = 0.899	3.25	–
318.15 K, x1 = 1	3.92	14.54
323.15 K, x1 = 0.199	1.02	34.7
323.15 K, x1 = 0.32	1.38	31.1
323.15 K, x1 = 0.429	1.52	25.7
323.15 K, x1 = 0.67	2.49	18.78
323.15 K, x1 = 0.9505	4.04	12.2
323.15 K, x1 = 1	4.38	11.49
328.15 K, x1 = 0.199	–	29.5
328.15 K, x1 = 0.32	–	26.6
328.15 K, x1 = 0.67	–	16.38
328.15 K, x1 = 0.899	–	11.78
328.15 K, x1 = 0.9505	–	10.86
328.15 K, x1 = 1	–	10.25
333.15 K, x1 = 0.199	–	25.3
333.15 K, x1 = 0.429	–	19.14
333.15 K, x1 = 0.67	–	14.35
333.15 K, x1 = 0.899	–	10.37
333.15 K, x1 = 0.9505	–	9.56
333.15 K, x1 = 1	–	9.02
338.15 K, x1 = 0.199	–	21.85
338.15 K, x1 = 0.32	–	19.89
338.15 K, x1 = 0.429	–	16.74
338.15 K, x1 = 0.67	–	12.76
338.15 K, x1 = 0.9505	–	8.75
338.15 K, x1 = 1	–	8.3
343.15 K, x1 = 0.199	–	19.06
343.15 K, x1 = 0.67	–	11.37
343.15 K, x1 = 0.899	–	8.53
343.15 K, x1 = 0.9505	–	7.92
343.15 K, x1 = 1	–	7.53
348.15 K, x1 = 0.199	–	16.75
348.15 K, x1 = 0.32	–	15.38
348.15 K, x1 = 0.429	–	13.08
348.15 K, x1 = 0.67	–	10.21
348.15 K, x1 = 0.899	–	7.74
348.15 K, x1 = 1	–	6.87
353.15 K, x1 = 0.199	–	14.87
353.15 K, x1 = 0.32	–	13.71
353.15 K, x1 = 0.429	–	11.68
353.15 K, x1 = 0.67	–	9.16
353.15 K, x1 = 0.899	–	6.96
353.15 K, x1 = 0.9505	–	6.48
353.15 K, x1 = 1	–	6.17
